From ChEMBL document CHEMBL5370593, “Discovery and In Vitro Characterization of SPL028: Deuterated N,N-Dimethyltryptamine” (ACS Med Chem Lett, 2023)
pIC50, pKi: −log10 of the molar value.

Key:
[1] = Plasma protein binding in human assessed as unbound fraction by rapid equilibrium dialysis analysis; assay type: ADME, cell-free
MAO-A = MAO-A (Homo sapiens, UniProt P21397); assay: Inhibition of human recombinant MAO-A expressed in insect cells assessed as inhibition of 4-hydroxyquinoline formation at 10 uM using kynuramine as substrate incubated for 75 mins by spectrophotometric analysis relative to control; set-up: species or system Insect cell; conditions: probe kynuramine
MAO-A, sequence (P21397 whole entry): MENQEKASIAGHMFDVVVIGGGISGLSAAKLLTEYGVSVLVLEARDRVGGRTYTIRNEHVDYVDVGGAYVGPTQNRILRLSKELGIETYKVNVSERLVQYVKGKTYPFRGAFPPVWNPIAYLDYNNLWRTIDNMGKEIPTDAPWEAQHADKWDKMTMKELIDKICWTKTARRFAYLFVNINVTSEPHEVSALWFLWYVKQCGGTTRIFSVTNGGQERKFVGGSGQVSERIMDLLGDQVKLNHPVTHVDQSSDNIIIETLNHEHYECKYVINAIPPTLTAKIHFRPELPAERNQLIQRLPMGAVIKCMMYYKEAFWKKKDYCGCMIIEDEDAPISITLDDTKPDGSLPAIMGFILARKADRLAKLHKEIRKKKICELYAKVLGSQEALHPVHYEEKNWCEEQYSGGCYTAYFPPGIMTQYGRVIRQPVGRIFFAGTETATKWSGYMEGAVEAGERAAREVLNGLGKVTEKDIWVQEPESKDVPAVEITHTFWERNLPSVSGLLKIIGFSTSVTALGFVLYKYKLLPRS

[2] = Metabolic stability in human liver mitochondrial fraction assessed as mean intrinsic clearance measured per million cells incubated upto 60 mins by LC-MS/MS analysis; assay type: ADME, mitochondria, Mitochondria; conditions: 1 h
[3] = Metabolic stability in human hepatocytes assessed as half life measured per million cells incubated upto 60 mins by LC-MS/MS analysis; assay type: ADME, cell-based, Hepatocyte
[4] = Metabolic stability in human hepatocytes assessed as intrinsic clearance measured per million cells incubated upto 60 mins by LC-MS/MS analysis; assay type: ADME, cell-based, Hepatocyte; conditions: read-out: CLH
[5] = Distribution coefficient, mean logD of compound at pH 7.4 in octanol and aqueous solution incubated for 95 mins under shaking condition by LC-MS/MS analysis; assay type: physicochemical
[6] = target: T1, 5-hydroxytryptamine receptor 5A (Homo sapiens, UniProt P47898); assay: Displacement of [3H] LSD from human recombinant 5-HT5A receptor expressed in CHO-K1 cells incubated for 60 mins by spectrophotometric analysis; assay type: cell-based
T1 sequence (P47898 whole entry): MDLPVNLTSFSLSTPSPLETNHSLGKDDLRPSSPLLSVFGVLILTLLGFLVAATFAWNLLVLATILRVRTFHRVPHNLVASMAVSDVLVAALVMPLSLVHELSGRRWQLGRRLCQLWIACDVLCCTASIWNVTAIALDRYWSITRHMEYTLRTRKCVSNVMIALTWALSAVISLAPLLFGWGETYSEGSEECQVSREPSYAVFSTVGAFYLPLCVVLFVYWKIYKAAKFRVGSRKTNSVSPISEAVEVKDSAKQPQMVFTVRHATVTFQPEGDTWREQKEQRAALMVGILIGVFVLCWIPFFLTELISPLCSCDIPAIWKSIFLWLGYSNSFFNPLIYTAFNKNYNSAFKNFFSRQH

[7] = target: 5-hydroxytryptamine receptor 6 (Homo sapiens, UniProt P50406); assay: Displacement of [3H] LSD from human recombinant 5-HT6 receptor expressed in human HeLa cells incubated for 120 mins by spectrophotometric analysis; assay type: cell-based
5-hydroxytryptamine receptor 6, sequence (P50406 whole entry): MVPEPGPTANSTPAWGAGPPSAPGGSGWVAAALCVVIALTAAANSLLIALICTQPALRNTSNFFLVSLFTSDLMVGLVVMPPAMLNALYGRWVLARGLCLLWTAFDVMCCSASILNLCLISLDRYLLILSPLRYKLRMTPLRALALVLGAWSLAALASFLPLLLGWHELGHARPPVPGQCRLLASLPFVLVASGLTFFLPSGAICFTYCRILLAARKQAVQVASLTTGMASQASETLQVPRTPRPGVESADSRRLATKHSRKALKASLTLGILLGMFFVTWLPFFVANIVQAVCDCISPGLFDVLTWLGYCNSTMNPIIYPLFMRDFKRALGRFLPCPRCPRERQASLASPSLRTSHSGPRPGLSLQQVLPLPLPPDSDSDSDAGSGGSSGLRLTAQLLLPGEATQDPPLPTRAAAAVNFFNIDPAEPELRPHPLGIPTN

[8] = target: T2, Alpha-1D adrenergic receptor (Homo sapiens, UniProt P25100); assay: Displacement of [3H] prazosin from human recombinant adrenergic alpha-1d receptor expressed in HEK293 cells incubated for 60 mins by spectrophotometric analysis; assay type: cell-based
T2 sequence (P25100 whole entry): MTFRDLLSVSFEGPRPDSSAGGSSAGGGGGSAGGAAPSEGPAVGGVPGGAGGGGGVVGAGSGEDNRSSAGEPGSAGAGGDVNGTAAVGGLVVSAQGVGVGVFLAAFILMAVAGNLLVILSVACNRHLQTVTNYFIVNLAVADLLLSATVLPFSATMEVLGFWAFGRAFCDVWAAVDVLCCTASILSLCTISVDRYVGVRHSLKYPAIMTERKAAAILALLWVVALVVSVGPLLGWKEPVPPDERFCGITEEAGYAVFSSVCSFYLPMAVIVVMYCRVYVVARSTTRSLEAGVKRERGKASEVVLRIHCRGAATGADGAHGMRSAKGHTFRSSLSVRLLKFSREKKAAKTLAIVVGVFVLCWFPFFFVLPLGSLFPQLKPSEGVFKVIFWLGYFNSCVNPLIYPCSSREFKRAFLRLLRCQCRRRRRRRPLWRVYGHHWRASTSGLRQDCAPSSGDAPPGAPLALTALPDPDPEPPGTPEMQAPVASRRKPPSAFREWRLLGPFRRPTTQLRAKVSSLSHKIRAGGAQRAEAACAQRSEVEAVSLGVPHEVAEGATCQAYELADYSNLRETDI

[9] = target: T3, Alpha-2A adrenergic receptor (Homo sapiens, UniProt P08913); assay: Displacement of [3H]-rauwolscine from human recombinant adrenergic alpha-2A receptor expressed in CHO-K1 cells incubated for 60 mins by spectrophotometric analysis; assay type: cell-based
T3 sequence (P08913 whole entry): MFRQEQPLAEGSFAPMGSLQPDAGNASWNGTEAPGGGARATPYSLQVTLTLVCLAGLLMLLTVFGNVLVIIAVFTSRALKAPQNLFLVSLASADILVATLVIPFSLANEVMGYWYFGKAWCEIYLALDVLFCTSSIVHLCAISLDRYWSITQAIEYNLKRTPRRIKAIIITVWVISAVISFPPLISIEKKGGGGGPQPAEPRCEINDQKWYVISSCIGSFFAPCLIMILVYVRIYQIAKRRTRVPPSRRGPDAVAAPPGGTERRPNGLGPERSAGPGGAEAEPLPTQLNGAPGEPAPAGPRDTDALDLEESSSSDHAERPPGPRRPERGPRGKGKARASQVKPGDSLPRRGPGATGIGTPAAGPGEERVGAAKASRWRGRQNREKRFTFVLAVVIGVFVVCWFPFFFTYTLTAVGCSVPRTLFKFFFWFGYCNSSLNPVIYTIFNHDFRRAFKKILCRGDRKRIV

[10] = Displacement of [3H] idazoxan from imidazoline receptor 2 (unknown origin) by spectrophotometric analysis; set-up: species or system Homo sapiens
[11] = target: Neuronal acetylcholine receptor; alpha3/beta4 (Homo sapiens, UniProt P30926+P32297); assay: Displacement of [125I]-epibatidine from human recombinant nAChR alpha3beta4 receptor expressed in CHO-K1 cells incubated for 60 mins by spectrophotometric analysis; assay type: cell-based
Neuronal acetylcholine receptor; alpha3/beta4, sequence (P30926 whole entry): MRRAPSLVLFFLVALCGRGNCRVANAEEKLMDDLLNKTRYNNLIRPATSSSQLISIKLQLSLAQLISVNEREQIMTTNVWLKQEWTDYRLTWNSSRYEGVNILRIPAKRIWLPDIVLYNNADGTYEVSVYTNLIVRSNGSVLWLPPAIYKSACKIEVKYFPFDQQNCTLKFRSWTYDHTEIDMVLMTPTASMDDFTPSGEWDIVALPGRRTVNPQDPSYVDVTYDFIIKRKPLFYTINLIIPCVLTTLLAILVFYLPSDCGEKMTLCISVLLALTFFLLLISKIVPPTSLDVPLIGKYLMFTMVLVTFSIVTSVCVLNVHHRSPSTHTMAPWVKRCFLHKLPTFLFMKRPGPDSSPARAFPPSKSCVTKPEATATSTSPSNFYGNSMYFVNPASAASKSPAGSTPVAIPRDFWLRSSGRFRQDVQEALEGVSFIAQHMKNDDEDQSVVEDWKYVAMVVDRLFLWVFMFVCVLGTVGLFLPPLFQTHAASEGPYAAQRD
Neuronal acetylcholine receptor; alpha3/beta4, sequence (P32297 whole entry): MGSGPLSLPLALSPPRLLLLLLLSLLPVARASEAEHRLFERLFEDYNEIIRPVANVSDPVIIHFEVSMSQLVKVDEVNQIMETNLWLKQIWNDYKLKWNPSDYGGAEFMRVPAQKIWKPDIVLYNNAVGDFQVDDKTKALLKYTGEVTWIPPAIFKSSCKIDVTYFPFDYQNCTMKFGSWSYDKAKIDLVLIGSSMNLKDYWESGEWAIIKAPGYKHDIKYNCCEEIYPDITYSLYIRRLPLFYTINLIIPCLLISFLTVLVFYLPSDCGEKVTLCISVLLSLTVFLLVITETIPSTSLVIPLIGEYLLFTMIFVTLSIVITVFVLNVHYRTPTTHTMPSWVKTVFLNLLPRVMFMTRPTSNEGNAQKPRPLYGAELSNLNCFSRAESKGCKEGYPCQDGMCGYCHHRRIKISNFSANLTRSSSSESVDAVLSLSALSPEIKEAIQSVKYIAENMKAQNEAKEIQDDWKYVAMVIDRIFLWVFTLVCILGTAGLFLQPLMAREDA

[12] = target: 5-hydroxytryptamine receptor 1B (Homo sapiens, UniProt P28222); assay: Displacement of [3H] GR125743 from human recombinant 5-HT1B receptor expressed in […] cells assessed as inhibition constant incubated for 90 mins by spectrophotometric analysis; assay type: cell-based
5-hydroxytryptamine receptor 1B, sequence (P28222 whole entry): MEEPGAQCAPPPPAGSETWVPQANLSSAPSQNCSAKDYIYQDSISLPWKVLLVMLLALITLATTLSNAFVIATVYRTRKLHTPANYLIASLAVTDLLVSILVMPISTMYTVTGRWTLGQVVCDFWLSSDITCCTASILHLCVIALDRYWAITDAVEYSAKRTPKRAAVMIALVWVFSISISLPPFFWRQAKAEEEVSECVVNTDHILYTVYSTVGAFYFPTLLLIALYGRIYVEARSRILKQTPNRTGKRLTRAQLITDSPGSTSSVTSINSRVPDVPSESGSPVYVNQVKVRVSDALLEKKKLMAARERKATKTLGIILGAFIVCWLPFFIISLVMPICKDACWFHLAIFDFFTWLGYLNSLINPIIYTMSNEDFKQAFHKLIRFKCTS

[13] = target: 5-hydroxytryptamine receptor 2A (Homo sapiens, UniProt P28223); assay: Displacement of [3H] ketanserin from human recombinant 5-HT2A receptor expressed in CHO-K1 cells assessed as inhibition constant incubated for 60 mins by spectrophotometric analysis
5-hydroxytryptamine receptor 2A, sequence (P28223 whole entry): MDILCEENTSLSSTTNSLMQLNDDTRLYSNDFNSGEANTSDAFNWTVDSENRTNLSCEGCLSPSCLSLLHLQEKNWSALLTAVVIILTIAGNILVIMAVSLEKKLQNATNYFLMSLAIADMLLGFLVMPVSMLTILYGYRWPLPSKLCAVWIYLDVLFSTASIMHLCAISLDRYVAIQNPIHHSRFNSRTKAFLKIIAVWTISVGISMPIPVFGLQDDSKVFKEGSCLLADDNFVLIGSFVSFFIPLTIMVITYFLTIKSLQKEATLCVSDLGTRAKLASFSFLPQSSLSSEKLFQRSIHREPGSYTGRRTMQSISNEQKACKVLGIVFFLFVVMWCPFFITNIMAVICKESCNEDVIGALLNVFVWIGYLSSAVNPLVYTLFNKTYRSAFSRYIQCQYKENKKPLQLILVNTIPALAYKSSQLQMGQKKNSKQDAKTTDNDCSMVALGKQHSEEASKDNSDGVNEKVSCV

[14] = target: T1, 5-hydroxytryptamine receptor 5A; assay: Displacement of [3H] LSD from human recombinant 5-HT5A receptor expressed in CHO-K1 cells assessed as inhibition constant incubated for 60 mins by spectrophotometric analysis; assay type: cell-based
[15] = target: 5-hydroxytryptamine receptor 7 (Homo sapiens, UniProt P34969); assay: Displacement of [3H] LSD from human recombinant 5-HT7 receptor expressed in CHO-K1 cells assessed as inhibition constant incubated for 120 mins by spectrophotometric analysis; assay type: cell-based
5-hydroxytryptamine receptor 7, sequence (P34969 whole entry): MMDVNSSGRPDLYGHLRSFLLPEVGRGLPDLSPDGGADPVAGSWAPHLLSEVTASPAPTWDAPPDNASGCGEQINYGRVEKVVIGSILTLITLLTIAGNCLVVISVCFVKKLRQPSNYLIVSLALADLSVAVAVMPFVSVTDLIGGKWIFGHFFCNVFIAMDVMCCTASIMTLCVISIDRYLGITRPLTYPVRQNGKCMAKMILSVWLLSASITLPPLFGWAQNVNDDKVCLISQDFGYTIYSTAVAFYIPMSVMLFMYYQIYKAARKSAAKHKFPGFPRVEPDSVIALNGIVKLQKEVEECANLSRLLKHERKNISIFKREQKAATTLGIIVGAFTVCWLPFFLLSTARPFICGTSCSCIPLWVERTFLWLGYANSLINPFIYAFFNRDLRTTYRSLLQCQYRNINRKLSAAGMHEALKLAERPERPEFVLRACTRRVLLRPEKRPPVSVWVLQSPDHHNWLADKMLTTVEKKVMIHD

[16] = target: T4, Alpha-1A adrenergic receptor (Homo sapiens, UniProt P35348); assay: Displacement of [3H] prazosin from human recombinant adrenergic alpha-1a receptor expressed in […] cells assessed as inhibition constant incubated for 60 mins by spectrophotometric analysis; assay type: cell-based
T4 sequence (P35348 whole entry): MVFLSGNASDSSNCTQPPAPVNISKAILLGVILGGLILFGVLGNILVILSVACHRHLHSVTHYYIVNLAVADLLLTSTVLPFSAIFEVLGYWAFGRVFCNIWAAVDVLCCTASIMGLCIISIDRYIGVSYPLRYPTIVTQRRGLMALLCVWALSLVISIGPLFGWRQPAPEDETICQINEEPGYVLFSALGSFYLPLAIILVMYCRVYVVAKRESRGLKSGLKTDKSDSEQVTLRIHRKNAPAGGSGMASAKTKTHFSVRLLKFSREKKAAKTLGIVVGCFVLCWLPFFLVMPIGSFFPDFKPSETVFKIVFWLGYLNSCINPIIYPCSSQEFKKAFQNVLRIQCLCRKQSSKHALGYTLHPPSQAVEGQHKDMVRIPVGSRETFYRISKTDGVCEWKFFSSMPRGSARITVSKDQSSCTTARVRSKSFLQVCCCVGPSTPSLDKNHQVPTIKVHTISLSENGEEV

[17] = target: T2, Alpha-1D adrenergic receptor; assay: Displacement of [3H] prazosin from human recombinant adrenergic alpha-1d receptor expressed in HEK293 cells assessed as inhibition constant incubated for 60 mins by spectrophotometric analysis; assay type: cell-based
[18] = Displacement of [3H] idazoxan from imidazoline receptor 2 (unknown origin) assessed as inhibition constant by spectrophotometric analysis; set-up: species or system Homo sapiens

| SMILES | fraction unbound [1] | inhibition at 1.25 h, 10 µM (MAO-A) | CLH [2] | half-life [3] | hepatocyte CLint [4] | logD at 1.583 h [5] | pIC50 [6] | pIC50 [7] | pIC50 [8] | pIC50 [9] | pIC50 [10] | pIC50 [11] | pKi [12] | pKi [13] | pKi [14] | pKi [15] | pKi [16] | pKi [17] | pKi [18] |
| --- | --- | --- | --- | --- | --- | --- | --- | --- | --- | --- | --- | --- | --- | --- | --- | --- | --- | --- | --- |
| O=C(O)/C=C/C(=O)O.[2H]C([2H])(Cc1c[nH]c2ccccc12)N(C)C | 0.7 | 84.3% | 16.5 µL/min | 3.72 h | 7.3 µL/min/1e6 cells | 0.11 | 5.48 | 5.97 | 5.49 | 5.52 | 5.59 | 5.36 | 5.82 | 7.22 | 5.77 | 7.30 | 6.32 | 5.80 | 5.76 |
| CN(C)CCc1c[nH]c2ccccc12.O=C(O)/C=C/C(=O)O | 0.68 | 85.3% | 168 µL/min | 3.17 h | 16.6 µL/min/1e6 cells | 0.15 | 5.48 | 5.92 | 5.51 | 5.65 | 5.71 | 5.38 | 5.74 | 7.40 | 5.77 | 7.15 | 6.55 | 5.82 | 5.89 |
